How the values were obtained:
GSK3β = GSK3β (Homo sapiens, UniProt P49841); test: GSK3β ATP depletion assay; format: biochemical; details: ATP depletion assay; read-out: GSK3b IC50
In short: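 Kinase activity is read as ATP consumption: luciferase luminescence reports the ATP remaining once roughly half of the 2 μM ATP is used. Reaction mix: 5 nM GSK3β, 10 μM b-CREB peptide, 50 mM Tris pH 7.5, 15 mM MgCl2, 1 mM DTT, 0.1% BSA, 2.5% DMSO. Enzyme and peptide are preincubated 15 min before ATP is added.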

[1] = system: KMS11 (human myeloma cell line); test: Cell proliferation assay (CellTiter-Glo), KMS11; format: cell-based; details: Homo sapiens, KMS-11; KMS11 cells, cell proliferation; read-out: KMS11-Luc EC50
In short: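 EC50 derived from CellTiter-Glo luminescence after 3-day exposure at 37° C. Compound was diluted to 2× in medium and added to an equal volume of cells. KMS11 myeloma cells were plated on assay day at 2000/well in IMDM with 10% FBS and sodium pyruvate.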

PIM2 = PIM2 (Homo sapiens, UniProt Q9P1W9); test: Pim 2 AlphaScreen assay (high ATP); format: biochemical; details: read-out: Pim2 IC50
Chain of PIM2 (Q9P1W9 whole entry): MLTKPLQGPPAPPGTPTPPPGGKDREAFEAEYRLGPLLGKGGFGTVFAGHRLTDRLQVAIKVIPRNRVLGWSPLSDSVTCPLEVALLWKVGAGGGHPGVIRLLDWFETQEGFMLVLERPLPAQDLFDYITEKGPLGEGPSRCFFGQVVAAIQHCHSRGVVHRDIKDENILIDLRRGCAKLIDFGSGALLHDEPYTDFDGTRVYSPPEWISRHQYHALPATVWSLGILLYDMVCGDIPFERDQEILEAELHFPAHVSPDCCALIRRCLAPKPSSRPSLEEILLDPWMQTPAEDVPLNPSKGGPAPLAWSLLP
Protocol: Pim1, Pim2, Pim3 AlphaScreen Assay Pim 1, Pim 2 & Pim 3 AlphaScreen assays using high ATP (11-125×ATP Km) were used to determine the biochemical activity of the inhibitors. The activity of Pim 1, Pim 2, & Pim 3 is measured using a homogeneous bead based system quantifying the amount of phosphorylated peptide substrate resulting from kinase-catalyzed phosphoryl transfer to a peptide substrate. Compounds to be tested are dissolved in 100% DMSO and directly distributed to a white 384-well plate at […] per well. To start the reaction, 5 μl of 100 nM Bad peptide (Biotin-AGAGRSRHSSYPAGT —OH) and ATP (concentrations described below) in assay buffer (50 mM Hepes, pH=7.5, 5 mM MgCl2, 0.05% BSA, 0.01% Tween-20, 1 mM DTT) is added to each well. This is followed by the addition of 5 μl/well of Pim 1, Pim 2 or Pim 3 kinase in assay buffer (concentrations described below). Final assay concentrations (described below) are in 2.5% DMSO. The reactions are performed for ˜2 hours, then stopped by the addition of 10 μl of 0.75 μg/ml anti-phospho Ser/Thr antibody (Cell Signaling), 10 μg/ml Protein A AlphaScreen beads (Perkin Elmer), and 10 μg/ml streptavidin coated AlphaScreen beads in stop/detection buffer (50 mM EDTA, 95 mM Tris, pH=7.5, 0.01% Tween-20). The stopped reactions are incubated overnight in the dark. The phosphorylated peptide is detected via an […] initiated chemiluminescence/fluorescence cascade using the Envision plate reader (Perkin Elmer).
IC50, the half maximal inhibitory concentration, represents the concentration of a test compound that is required for 50% inhibition of its target in vitro under the described assay conditions.

Chain of GSK3β (P49841 whole entry, species assumed): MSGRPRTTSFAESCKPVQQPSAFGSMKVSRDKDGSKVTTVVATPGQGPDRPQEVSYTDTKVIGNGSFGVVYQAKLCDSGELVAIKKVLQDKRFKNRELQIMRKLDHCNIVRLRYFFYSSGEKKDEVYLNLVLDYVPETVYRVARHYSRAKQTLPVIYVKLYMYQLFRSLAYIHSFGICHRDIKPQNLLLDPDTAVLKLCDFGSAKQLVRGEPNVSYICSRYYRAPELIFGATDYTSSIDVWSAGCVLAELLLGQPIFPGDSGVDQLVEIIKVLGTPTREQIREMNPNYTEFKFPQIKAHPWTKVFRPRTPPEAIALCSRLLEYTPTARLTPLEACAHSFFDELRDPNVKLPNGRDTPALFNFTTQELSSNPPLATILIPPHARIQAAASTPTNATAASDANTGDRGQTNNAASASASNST

Row | SMILES | IC50 (GSK3β) | EC50 [1] | IC50 (PIM2)
1 | C[C@H]1O[C@@H](c2ccncc2NC(=O)c2ccc(F)c(-c3c(F)cc(S(C)(=O)=O)cc3F)n2)C[C@@H](N)[C@]1(C)O [Example 285, N-(4-((2R,4R,5S,6R)-4-amino-5-hydroxy-5,6-dimethyltetrahydro-2H-pyran-2-yl)pyridin-3-yl)-6-(2,6-difluoro-4-(methylsulfonyl)phenyl)-5-fluoropicolinamide] | 1290 nM | 1170 nM | 44.9 nM
2 | CNC(=O)c1cc(F)c(-c2nc(C(=O)Nc3cnccc3[C@H]3C[C@@H](N)[C@](C)(O)[C@@H](C)O3)ccc2F)c(F)c1 [Example 333, N-(4-((2R,4R,5S,6R)-4-amino-5-hydroxy-5,6-dimethyltetrahydro-2H-pyran-2-yl)pyridin-3-yl)-6-(2,6-difluoro-4-(methylcarbamoyl)phenyl)-5-fluoropicolinamide] |  | 3760 nM | 27.3 nM
3 | C[C@]1(O)[C@H](N)CC(c2ccncc2NC(=O)c2ccc(F)c(-c3c(F)cc(S(C)(=O)=O)cc3F)n2)O[C@@H]1C1CC1 (stereo in doubt) [Example 281, N-(4-((2S,4R,5S,6R)-4-amino-6-cyclopropyl-5-hydroxy-5-methyltetrahydro-2H-pyran-2-yl)pyridin-3-yl)-6-(2,6-difluoro-4-(methylsulfonyl)phenyl)-5-fluoropicolinamide] | 4250 nM | 1090 nM | 62.3 nM
4 | CC(C)C(=O)Nc1cc(F)c(-c2nc(C(=O)Nc3cnccc3[C@H]3C[C@@H](N)[C@](C)(O)[C@@H](C)O3)ccc2F)c(F)c1 [Example 339, N-(4-((2R,4R,5S,6R)-4-amino-5-hydroxy-5,6-dimethyltetrahydro-2H-pyran-2-yl)pyridin-3-yl)-6-(2,6-difluoro-4-isobutyramidophenyl)-5-fluoropicolinamide] |  | 230 nM | 3.5 nM
5 | CC(=O)Nc1cc(F)c(-c2nc(C(=O)Nc3cnccc3[C@H]3C[C@@H](N)[C@](C)(O)[C@@H](C)O3)ccc2F)c(F)c1 [Example 338, 6-(4-acetamido-2,6-difluorophenyl)-N-(4-((2R,4R,5S,6R)-4-amino-5-hydroxy-5,6-dimethyltetrahydro-2H-pyran-2-yl)pyridin-3-yl)-5-fluoropicolinamide] |  | 940 nM | 2.1 nM
6 | C[C@H]1O[C@@H](c2ccncc2NC(=O)c2ccc(F)c(N3CCS(=O)(=O)CC3)n2)C[C@@H](N)[C@]1(C)O [Example 335, N-(4-((2R,4R,5S,6R)-4-amino-5-hydroxy-5,6-dimethyltetrahydro-2H-pyran-2-yl)pyridin-3-yl)-6-(1,1-dioxidothiomorpholino)-5-fluoropicolinamide] |  | > 10000 nM | > 25000 nM
7 | CC[C@H]1O[C@@H](c2ccncc2NC(=O)c2ccc(F)c(-c3c(F)cc(C(C)(C)O)cc3F)n2)C[C@@H](N)[C@@H]1O [Example 336, N-(4-((2R,4R,5S,6R)-4-amino-6-ethyl-5-hydroxytetrahydro-2H-pyran-2-yl)pyridin-3-yl)-6-(2,6-difluoro-4-(2-hydroxypropan-2-yl)phenyl)-5-fluoropicolinamide] |  | 180 nM | 3.9 nM
8 | CC(C)[C@@H]1C[C@H](N)C[C@H](c2ccncc2NC(=O)c2ccc(F)c(-c3c(F)ccc(C#N)c3F)n2)O1 [Example 337, N-(4-((2R,4S,6S)-4-amino-6-isopropyltetrahydro-2H-pyran-2-yl)pyridin-3-yl)-6-(3-cyano-2,6-difluorophenyl)-5-fluoropicolinamide] |  | 1350 nM | 40 nM
9 | C[C@H]1O[C@@H](c2ccncc2NC(=O)c2ccc(F)c(-c3c(F)cc(C(=O)N(C)C)cc3F)n2)C[C@@H](N)[C@]1(C)O [Example 334, N-(4-((2R,4R,5S,6R)-4-amino-5-hydroxy-5,6-dimethyltetrahydro-2H-pyran-2-yl)pyridin-3-yl)-6-(4-(dimethylcarbamoyl)-2,6-difluorophenyl)-5-fluoropicolinamide] |  | 760 nM | 62.7 nM
